Values of other authors as cited in patent US11633460B2, “Injectable solution at pH 7 comprising at least one basal insulin wherein the pI is comprised from 5.8 to 8.5 and a co-polyamino acid bearing carboxylate charges and hydrophobic radicals” (ADOCIA, priority 2017, dated 2023).

Conditions: patients, background statement

## insulin glargine
  Period over which the hypoglycemic effect is quasi-constant: 24 h
